Peptide text beside a SMILES is read from it. * marks the point of attachment. Biotin = O=C1N[C@H]2[C@H](CS[C@H]2CCCCC(=O)*)N1
Key:
Type in all cases: in vivo, female volunteers
lashes [1] = assay: Lash length by photo measurement and image analysis, double-blind clinical study, mascara on one eye versus placebo on the other; conditions: length and diameter, 15 and 30 days
Method: The purpose of the clinical study was to evaluate the following among volunteers: • lash lengthening, • lash thickening, • reinforcement of lash anchorage (decrease in lash loss during mascara removal).
(§1) Lashes were photographed in a precise manner that could be reproduced and at a special angle so that lashes could be viewed perfectly. An image analysis was then performed on these photographs to quantify lash length and diameter in the central segment of the lids of female volunteers.
(§2) This was a double-blind study that employed non-invasive methods. 30 female volunteers used two mascaras: 1) VOLUMISING BLACK MASCARA (according to Example 1) containing 0.00066% of Biot-GHK and 0.01% of panthenol on one eye and 2) its placebo on the other eye (same formula without the active ingredients of the invention).
The measurements were performed before application (TO) then after 15 and 30 days of daily application. Application during the eight hours preceding a measurement day was not allowed. […]
(§3) Once the head was correctly positioned on an appropriate mechanism, the lashes were frontally photographed using a Reflex Nikon D300 (12.3 megapixel) digital camera with a "macro" (60 mm F/2.8 GED) lens and a flash. The images were analysed with special software. […] The lengths and diameters were measured on the lashes of segments S2, S3 and S4 (5 lashes per segment) on each side.

lashes [2] = assay: Lash diameter by photo measurement and image analysis, same double-blind clinical study; conditions: after 30 days of daily use; 2% in a basic mascara formula
Method: as §1, §2
The measurements were performed before application (TO) then after 15 and 30 days of daily application. Application during the eight hours preceding a measurement day was not allowed.
The volunteers had to apply each mascara as follows: 3 brush strokes to the outside lashes, 4 brush strokes to the central lashes and 3 brush strokes to the interior lashes. […]
as §3, with “side. […]” for “side.”

lashes [3] = assay: Blind clinical evaluation of lash photos by 3 trained experts (lengthening, thickening); conditions: summary statement
Method: Concurrent to this quantitative metrological study, two other evaluations were performed: one clinical evaluation in which trained experts scored photos and another evaluation in which the volunteers themselves evaluated the perceived effects using a multi-item questionnaire.
as §2
Table 3: Blind evaluation performed by 3 trained experts on lash lengthening in photos of 30 volunteers.
Table 4: Blind evaluation performed by 3 trained experts on increased lash diameter in photos of 30 volunteers

Q: For `NCCCC[C@H](NC(=O)[C@H](Cc1c[nH]cn1)NC(=O)CNC(=O)CCCC[C@@H]1SC[C@@H]2NC(=O)N[C@@H]21)C(=O)O` [Biot-GHK peptide, Biotinoyl tripeptide-1] (Biotin-Gly-His-Lys-OH), which “Result higher than the increase of parameters with the placebo” value (lashes [1]) is on record?
A: about 60%

Q: And the “Increase printed as "volume"” value (lashes [2])?
A: +14.2 mm^3

Q: What about the “Subjects in whom the variation was observed (first of "respectively": length)” value (lashes [3]) of the same molecule?
A: 87%

Q: What about the “Subjects in whom the variation was observed (second of "respectively": diameter, printed volume)” value (lashes [3]) of the same molecule?
A: 73%

Reference: patent publication EP2699223B1, “NEW COSMETIC USES OF GHK TRIPEPTIDE” (Sederma, priority 2011, dated 2012)
